# Data reported in ChEMBL document CHEMBL1201862, “PubChem BioAssay data set” (2004).
#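 Growth conditions: 96-well plates. Treatment: test compound, 48 hours, 5 concentrations. Analysis: linear interpolation between bracketing concentrations; unreached endpoints set to highest concentration. GI50 marks 50% less growth.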 Activity calls are given as the source filed them. Cut-off read from the data, not from the text of the source: active = GI50 up to about 1.1 µM and inactive = higher. Starred links: 1 amine or outer side, 2 acyl side, 3 side chain; linkers in the order of their positions; H or OH if unused. Positions of bridges follow the written chain, without caps; N, C: chain ends. Non-standard residues stand in square brackets, D forms with d. Residues, ends and D or L forms follow the SMILES beside them. Chains are numbered I, II in the order given. ξ: configuration not given here. X42 = N=C(N)NCCC[C@H](NC(=N)CCCCCCC(=N)N[C@@H](CCCNC(=N)N)C(=O)[*:2])C(=O)[*:1]; Oic(3aξ,7aξ) = O=C(O)[C@@H]1CC2CCCCC2N1; Igl = N[C@H](C(=O)O)C1Cc2ccccc2C1; Hyp = O=C(O)[C@@H]1C[C@@H](O)CN1
# Legend:
# Test in all cases: inhibition of tumour cell growth, NCI panel, 48 h
# [1] = system: OVCAR-8
# [2] = system: HL-60
# [3] = system: KM12
# [4] = system: A549
# [5] = system: OVCAR-3
# [6] = system: HCT-15
# [7] = system: SN12C
# [8] = system: 786-0
# [9] = system: NCI-H522
# [10] = system: UO-31
# [11] = system: K562
# [12] = system: MDA-MB-435
# [13] = system: SK-MEL-5
# [14] = system: HOP-62
# [15] = system: EKVX
# [16] = system: NCI-H23
# [17] = system: RXF 393
# [18] = system: NCI/ADR-RES
# [19] = system: COLO 205
# [20] = system: HCC 2998
SMILES,GI50 [1],GI50 [2],GI50 [3],GI50 [4],GI50 [5],GI50 [6],GI50 [7],GI50 [8],GI50 [9],GI50 [10],GI50 [11],GI50 [12],GI50 [13],GI50 [14],GI50 [15],GI50 [16],GI50 [17],GI50 [18],GI50 [19],GI50 [20]
O=[N+]([O-])c1ccc(C2c3c(O)nc(S)nc3Oc3nc(S)nc(O)c32)cc1,> 100 µM (inactive),> 100 µM (inactive),> 100 µM (inactive),> 100 µM (inactive),> 100 µM (inactive),> 100 µM,> 100 µM (inactive),> 100 µM (inactive),> 100 µM (inactive),> 100 µM (inactive),> 100 µM (inactive),> 100 µM (inactive),> 100 µM (inactive),> 100 µM (inactive),> 100 µM (inactive),> 100 µM (inactive),> 100 µM (inactive),> 100 µM (inactive),> 100 µM (inactive),
"N=C(N)NCCC[C@H](NC(=O)[C@@H]1CC2CCCCC2N1C(=O)[C@@H](NC(=O)[C@H](CO)NC(=O)[C@@H](NC(=O)CNC(=O)[C@@H]1CCCN1C(=O)[C@H](CCCNC(=N)N)NC(=O)[C@H](CCCNC(=N)N)NC(=N)CCCCCCC(=N)N[C@@H](CCCNC(=N)N)C(=O)N[C@@H](CCCNC(=N)N)C(=O)N1CCC[C@H]1C(=O)N1C[C@H](O)C[C@H]1C(=O)NCC(=O)N[C@H](C(=O)N[C@@H](CO)C(=O)N[C@H](C(=O)N1C2CCCCC2C[C@H]1C(=O)N[C@@H](CCCNC(=N)N)C(=O)O)C1Cc2ccccc2C1)C1Cc2ccccc2C1)C1Cc2ccccc2C1)C1Cc2ccccc2C1)C(=O)O (some centres undefined) (I: RP[Hyp]G[Igl]S[Igl][Oic(3aξ,7aξ)]R-OH / II: RPG[Igl]S[Igl][Oic(3aξ,7aξ)]R-OH; linker I:N-II:N via X42)",,0.15 µM (active),2.07 µM (inactive),3.08 µM (inactive),1.79 µM (inactive),2.22 µM,2.07 µM (inactive),2.99 µM (inactive),5.89 µM (inactive),5.43 µM (inactive),0.993 µM (active),1.99 µM (inactive),1.73 µM (inactive),2.23 µM (inactive),2.03 µM (inactive),1.92 µM (inactive),1.34 µM (inactive),2.9 µM (inactive),1.69 µM (inactive),
CC(C)=CC1C(COC(=O)c2cc3c(cc2Cl)OCO3)C1(C)C (centres undefined),34.8 µM (inactive),20.9 µM (inactive),28.2 µM (inactive),34.2 µM (inactive),25.2 µM (inactive),29 µM,39.5 µM (inactive),37.8 µM (inactive),18 µM (inactive),54.2 µM (inactive),34.4 µM (inactive),28 µM (inactive),20 µM (inactive),38.3 µM (inactive),30.4 µM (inactive),33.3 µM (inactive),20.8 µM (inactive),35.6 µM (inactive),,
Cc1cc(C)c(C2CC(O)C(CO)O2)cc1C (centres undefined),> 100 µM (inactive),,> 100 µM (inactive),> 100 µM (inactive),> 100 µM (inactive),> 100 µM,> 100 µM (inactive),> 100 µM (inactive),> 100 µM (inactive),> 100 µM (inactive),> 100 µM (inactive),> 100 µM (inactive),> 100 µM (inactive),> 100 µM (inactive),> 100 µM (inactive),> 100 µM (inactive),,67.5 µM (inactive),> 10 µM (inactive),> 100 µM (inactive)
S=C(Nc1ccccc1)c1ccc(CN2CCCCC2)s1,15.6 µM (inactive),14.9 µM (inactive),17.8 µM (inactive),29.6 µM (inactive),48.6 µM (inactive),18.3 µM,,17.6 µM (inactive),17.8 µM (inactive),16.2 µM (inactive),13.8 µM (inactive),18.1 µM (inactive),16.3 µM (inactive),26.5 µM (inactive),41.8 µM (inactive),19.4 µM (inactive),,28.6 µM (inactive),18.7 µM (inactive),21.8 µM (inactive)
Cc1ccc(/S(Cc2ccccc2)=N\S(=O)(=O)c2ccc(C)cc2)cc1 (centres undefined),> 100 µM (inactive),> 100 µM (inactive),> 100 µM (inactive),> 100 µM (inactive),> 100 µM (inactive),95.1 µM,> 100 µM (inactive),> 100 µM (inactive),,> 100 µM (inactive),> 100 µM (inactive),> 100 µM (inactive),,> 100 µM (inactive),> 100 µM (inactive),> 100 µM (inactive),> 100 µM (inactive),50 µM (inactive),> 100 µM (inactive),
O=[N+]([O-])c1ccc2c(c1)C1=C(CO2)Cc2ccccc2O1,33.5 µM (inactive),,20.1 µM (inactive),42.4 µM (inactive),19.8 µM (inactive),14.3 µM,25.9 µM (inactive),17.4 µM (inactive),22.4 µM (inactive),13.7 µM (inactive),51.4 µM (inactive),25.6 µM (inactive),15.8 µM (inactive),64.6 µM (inactive),27.2 µM (inactive),22 µM (inactive),,30.3 µM (inactive),16.8 µM (inactive),19.7 µM (inactive)
COC(=O)C12CCCN1CCC2,,,> 100 µM (inactive),> 100 µM (inactive),> 100 µM (inactive),> 100 µM,> 100 µM (inactive),> 100 µM (inactive),> 100 µM (inactive),> 100 µM (inactive),> 100 µM (inactive),> 100 µM (inactive),> 100 µM (inactive),> 100 µM (inactive),> 100 µM (inactive),> 100 µM (inactive),> 100 µM (inactive),> 100 µM (inactive),> 100 µM (inactive),> 100 µM (inactive)
